Consider two molecules from patent EP3970691A1, “SLIMMING COSMETIC COMPOSITIONS CONTAINING ONE OR MORE LIMONOIDS” (C.F.E.B. Sisley, priority 2020, dated 2022).

Type in all cases: cell-based
The target in data set [1] is T1, CERT (Mus musculus, UniProt Q9EQG9).
T1 construct: endogenous in cells; host or cells: 3T3-L1
T1 sequence (Q9EQG9 1-624): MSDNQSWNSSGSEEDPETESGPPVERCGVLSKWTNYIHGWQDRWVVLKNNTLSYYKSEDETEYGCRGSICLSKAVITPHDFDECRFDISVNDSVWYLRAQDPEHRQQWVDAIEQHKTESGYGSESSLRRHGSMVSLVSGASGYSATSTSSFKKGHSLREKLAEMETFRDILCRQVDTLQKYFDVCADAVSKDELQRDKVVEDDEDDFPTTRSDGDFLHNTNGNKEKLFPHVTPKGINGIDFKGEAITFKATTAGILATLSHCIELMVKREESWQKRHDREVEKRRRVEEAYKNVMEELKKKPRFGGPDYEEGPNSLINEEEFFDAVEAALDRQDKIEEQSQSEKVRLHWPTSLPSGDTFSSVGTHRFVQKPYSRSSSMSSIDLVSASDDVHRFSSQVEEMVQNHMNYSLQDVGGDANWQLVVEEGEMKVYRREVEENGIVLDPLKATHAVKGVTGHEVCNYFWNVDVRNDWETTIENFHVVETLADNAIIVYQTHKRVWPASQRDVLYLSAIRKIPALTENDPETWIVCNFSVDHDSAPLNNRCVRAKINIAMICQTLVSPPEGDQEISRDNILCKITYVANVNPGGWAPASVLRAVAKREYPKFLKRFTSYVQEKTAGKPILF
The data set is described as follows: Dose-response on basal 3T3-L1: total ceramide assay (DAG kinase) as readout of CERT inhibition. The following applies: 3T3-L1 in basal state, total ceramides; data not shown. From the text: (§1) Les taux de céramides dans les extraits de lipides cellulaires sont mesurés par la méthode enzymatique de la DAG kinase. Le principe de ce dosage est de phosphoryler les céramides avec de l'ATP radiomarqué grâce à l'action de cette enzyme, puis de quantifier les radiations obtenues pour chaque échantillons, permettant ainsi de doser la quantité totale de céramides présents initialement dans les échantillons. Les résultats sont exprimés en fmol de céramides et normalisés par rapport à la quantité de phospholipides totaux dans les échantillons, exprimée en nmol.
(§2) La quantité de phospholipides totaux contenue dans les extraits cellulaires est dosée afin de normaliser les céramides présents dans chaque échantillon. La quantité de phospholipides totaux est mesurée par spectrophotométrie : l'absorbance est mesurée à 660 nm, puis calculée grâce à une gamme de sodium phosphate dibasique (Sigma-Aldrich) permettant de déterminer la concentration en phosphates dans chaque échantillon.

Data set [2] concerns the target T1, CERT. Put plainly: Total ceramides and sphingomyelins during 3T3-L1 differentiation under gedunin treatment. On the procedure:
(§3) Le protocole de différenciation se déroule en deux étapes : une phase d'induction (2 jours) suivie d'une étape d'accumulation (2 à 5 jours). • Milieu d'induction : Il s'agit du milieu d'entretien des 3T3-L1 supplémenté de 1µM d'Insuline; 1.25µM de Dexaméthasone et 250µM d' IBMX (3-isobutyl-1-methylxanthine) • Cocktail d'accumulation : Ce milieu est composé du milieu d'entretien des 3T3-L1 supplémenté de 1µM d'Insuline ;
Les lipides ont été extraits et les échantillons préparés pour la chromatographie liquide couplée à la spectrométrie de masse (cf. Bligh E.G. et al, 1959).
as §1, §2
Afin de déterminer si la GED est capable d'inhiber le transport des céramides du RE vers le Golgi au cours du processus de différenciation des 3T3-L1, ces cellules ont été mises en contact de la GED au cours des deux phases du protocole (Schéma 3). Puis les céramides totaux et les sphingomyélines ont été quantifiés (figure 2A).

Data set [3] has as its system 3T3-L1. Put plainly: Oil Red staining of lipid droplets in 3T3-L1 (microscopy). The following applies: AdJ7, 10µM in induction (GED1) or accumulation (GED2) phase. From the text:
Afin de visualiser les gouttelettes lipidiques contenues dans les adipocytes matures et donc de quantifier le niveau de différenciation des cellules, les lipides sont marqués avec de l'huile rouge. L'huile rouge est un colorant liposoluble qui colore les lipides neutres et donc les triglycérides stockés dans les gouttelettes.
(§4) L'inhibition de CERT, et donc de la synthèse de SM, par le traitement à la GED ayant été validée, la question a donc ensuite été de savoir si cela avait un effet sur la capacité de différenciation des cellules. Le même protocole de différenciation a donc été appliqué, associé ou non à un traitement à la Ged (figure 2A), et les niveaux d'expression de gènes impliqués d'une part dans l'adipogenèse et d'autre part dans la fonction adipocytaire ont été mesurés. Par ailleurs, les analyses transcriptomiques ont été combinées avec une analyse phénotypique des échantillons : un marquage à l'huile rouge, qui, en marquant les lipides, permet de visualiser les gouttelettes lipidiques dans les cellules et donc de savoir si celles-ci sont différenciées et fonctionnelles.

A further data set has as its system pré-adipocytes humains. Put plainly: RT-qPCR gene expression in differentiating human pre-adipocytes. The following applies: treated during induction phase. On the procedure: Comme pour les 3T3-L1, le protocole de différenciation des PrAH se déroule en deux étapes : les cellules sont exposées à milieu d'induction puis à un milieu d'accumulation, ces deux phases durant 10 jours chacune.
Le milieu d'induction est composé du milieu d'entretien supplémenté de l'insuline à 1µM, de l'IBMX à 500µM, de la dexaméthasone à 1µM ainsi que de l'indométhacine à 200µM. Le milieu d'accumulation est quant à lui composé du milieu d'entretien auquel on ajoute de l'insuline à 1µM.
(§5) L'extraction des ARNm à partir de ces échantillons est réalisée avec un kit RNeasy® Mini Kit, commercialisé par QIAGEN®.
(§6) La rétrotranscription des ARN extraits des échantillons en ADNc est réalisée selon le protocole suivant : les ARN sont incubés à 50°C pendant 30 minutes afin de réaliser la rétro-transcription des ARN en présence de la réversetranscriptase M-MLV; puis à 95°C pendant 15 minutes afin d'inhiber l'activité de la rétrotranscriptase, de dégrader les amorces d'ARN et d'activer la polymérase.
(§7) La PCR quantitative est réalisée dans Le LightCylcer 1.5 (Roche) grâce au kit FastStart DNA Master plus SYBR Green I (Roche).
Dans un premier temps, les cellules ont donc été traitées avec de la Gédunine durant la phase d'induction. Le niveau d'expression de gènes impliqués dans l'adipogenèse et dans la fonction adipocytaire a été évalué. Dans un deuxième temps, les cellules ont été colorées avec de l'Huile Rouge afin de visualiser leur capacité à stocker des lipides au sein de leurs gouttelettes lipidiques.
A general note: Real-time PCR tracks product formation cycle by cycle.

The subject of data set [4] is 3T3-L1. The data set is described as follows: RT-qPCR expression of adipogenesis and adipocyte function genes during 3T3-L1 differentiation. On the procedure:
as §3, §5, §6, §7, §4
Les niveaux d'expression des gènes Pref1, comme marqueur pré-adipocytaire, ainsi que de PPARγ, C/EBPα et C/EBPδ qui sont des FT clés dans l'adipogenèse, ont été mesurés.

The test system of data set [5] is 3T3-L1. The data set is described as follows: Oil Red O neutral lipid quantification (spectrophotometry) in differentiating 3T3-L1. The following applies: for quantité de lipides: vs control. From the text: Brièvement : Des cellules 3T3-L1 ont été ensemencés dans leur milieu d'entretien. A confluence, les cellules ont été mises au contact des produits à tester dans un milieu permettant la différentiation des pré-adipocytes en adipocytes via la présence d'un cocktail d'induction. A l'issue du contact, les lipides neutres stockés dans les gouttelettes lipidiques des adipocytes ont été marqués par la coloration Huile Rouge O. Les lipides neutres ont été extraits (extraction à l'isopropanol) et dosés par spectrophotométrie. Les densités optiques obtenues sont proportionnelles à la quantité de lipides.

Setting [6] is: GED1 and GED2, stage AdJ7, vs CTRL.

Each structure is given as a SMILES string. Some results are limits rather than exact numbers.

Consider `CC(=O)O[C@@H]1C[C@H]2C(C)(C)C(=O)C=C[C@]2(C)[C@H]2CC[C@@]3(C)[C@H](c4ccoc4)OC(=O)[C@H]4O[C@]43[C@@]21C` [Gédunine, gédunine], for which, on CERT [1], the “dose de GED à partir de laquelle les céramides commencent à s'accumuler” value is at least 10 µM. Besides, the céramides totaux result on CERT [2] (3T3-L1, 10µM in induction phase, then control accumulation medium without GED) is “ne présentent pas d'accumulation des céramides”; on CERT [2] (3T3-L1, 10µM, AdJ2 treated in induction phase and AdJ7 treated in accumulation phase, vs control), “accumulation des céramides significative”. At CERT [2] (3T3-L1, 10µM, after 5 days of accumulation, treatment in first or second step), the “accumulation de SM” value was “diminuer significativement l'accumulation de SM”. In addition, the “quantité de SM” value at CERT [2] (3T3-L1, 10µM, early stage, just before accumulation step) is “légère diminution de la quantité de SM, toutefois non significative”. Further, the “marquage des lipides neutres par l'huile rouge” value in the data set on 3T3-L1 [3] is on record as “ne sont plus marquées”. Besides, in the data set with pré-adipocytes humains (CTRL vs GED), the “expression du marqueur pré-adipocytaire Pref1” value is reported as “aucune différence significative”. For the same molecule, the “expressions de AdipoQ, FAS et LPL” value with pré-adipocytes humains (vs CTRL) is reported as “diminution des expressions de AdipoQ, FAS et LPL”. The “induction de l'expression de PPARγ” value in the data set with pré-adipocytes humains (vs CTRL) was “fortement diminuée”. The “expression de PPARγ” value in the data set with 3T3-L1 [4] (10µM in accumulation phase) is reported as “diminution drastique de l'induction de l'expression de PPARγ”; in the data set on 3T3-L1 [4] (10µM in induction phase, stages AdJ2 and AdJ7), “diminution de cette induction de l'expression de PPARγ”. Further, the “expression de CD36, FAS, LPL et adiponectine” value in the data set on 3T3-L1 [4] (10µM in induction or accumulation phase, stages AdJ2 and AdJ7) is recorded as “diminue l'induction de l'expression de ces 4 gènes”; in the data set with 3T3-L1 [4] (AdJ7 GED2 (10µM in accumulation phase)) it was “diminution drastique”. Besides, the “expression de C/EBPδ” value in the data set on 3T3-L1 [4] (10µM, stage AdJ2) was “semble diminuer, toutefois non-significativement”. The “expression de Pref1” value was “diminue de la même manière que chez les CTRL” in the data set with 3T3-L1 [4] (GED1 (10µM in induction phase), stage AdJ2); “n'est plus réprimé” in the data set on 3T3-L1 [4] (GED1 (10µM in induction phase), stage AdJ7); “identique à celle des CTRL” in the data set with 3T3-L1 [4] (GED2 (10µM in accumulation phase), stage AdJ7). Also, the “expression de C/EBPα” value in the data set on 3T3-L1 [4] (setting [6]) was “diminuée”. Also, in the data set on 3T3-L1 [4] (setting [6]), the “niveau d'expression de C/EBPδ” value is listed as “significativement augmenté”.

For `CC1(C)O[C@H]2CC(=O)OC[C@]23[C@H]2CC[C@@]4(C)[C@H](c5ccoc5)OC(=O)[C@H]5O[C@]54[C@]2(C)C(=O)C[C@@H]13` [Limonine, limonine], the “% variation versus contrôle” value with 3T3-L1 [5] (Limonine 10µM) was -10%; in the data set on 3T3-L1 [5] (Limonine 2OµM) it was -16,5%. Further, the “Moyenne ± écart type (Densité optique à 490nm)” value with 3T3-L1 [5] (Limonine 10µM) is reported as 0,492 ± 0,061; in the data set on 3T3-L1 [5] (Limonine 2OµM), 0,455 ± 0,037. The cytotoxicité entry in the data set on 3T3-L1 [5] (limonin experiment, tested concentrations (10 and 20 µM)) is given as “Aucune cytotoxicité”. In addition, the quantité de lipides result with 3T3-L1 [5] (limonin experiment) and in the data set with 3T3-L1 [5] (mandarin extract experiment) was “baisse dose dépendante de la quantité de lipides” in each case.
